These results are taken from US20170320870A1 (Medical Research Council Technology, priority 2009, published 2017).

In general, IC50 refers to the midpoint of a concentration-inhibition curve.

Where only a bound is given, the exact number is not on record here.

The target of this test is T1, LRRK2 wild type (recombinant human, catalytic domain amino acids 970-2527, GST-tagged) (Homo sapiens, UniProt Q5S007).
T1 construct: The wild type used was recombinant human, catalytic domain (amino acids 970-2527) GST-tagged, expressed in insect cells; GST; purchased Invitrogen Corporation PV4873; host or cells: insect cells
Put plainly: LRRK2 wild type protein kinase assay ([γ-33P] ATP, peptide substrate […]), IC50. In kind it is biochemical. To be noted: LRRK2 (variant not given); read-out: Potency score, LRRK2 IC50. The procedure, abridged: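 IC50 derived from duplicate 10-point titrations, with 33P incorporation into a 100 μM peptide counted after P81 filter capture. Roughly 5 nM unactivated kinase reacted with Mg/[γ-33P]ATP for 180 min at room temperature (~21 °C), pH 7.5 Tris buffer containing 10 mM MgCl2, EGTA and DTT; acid-quenched.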

T1 sequence (Q5S007 970-2527): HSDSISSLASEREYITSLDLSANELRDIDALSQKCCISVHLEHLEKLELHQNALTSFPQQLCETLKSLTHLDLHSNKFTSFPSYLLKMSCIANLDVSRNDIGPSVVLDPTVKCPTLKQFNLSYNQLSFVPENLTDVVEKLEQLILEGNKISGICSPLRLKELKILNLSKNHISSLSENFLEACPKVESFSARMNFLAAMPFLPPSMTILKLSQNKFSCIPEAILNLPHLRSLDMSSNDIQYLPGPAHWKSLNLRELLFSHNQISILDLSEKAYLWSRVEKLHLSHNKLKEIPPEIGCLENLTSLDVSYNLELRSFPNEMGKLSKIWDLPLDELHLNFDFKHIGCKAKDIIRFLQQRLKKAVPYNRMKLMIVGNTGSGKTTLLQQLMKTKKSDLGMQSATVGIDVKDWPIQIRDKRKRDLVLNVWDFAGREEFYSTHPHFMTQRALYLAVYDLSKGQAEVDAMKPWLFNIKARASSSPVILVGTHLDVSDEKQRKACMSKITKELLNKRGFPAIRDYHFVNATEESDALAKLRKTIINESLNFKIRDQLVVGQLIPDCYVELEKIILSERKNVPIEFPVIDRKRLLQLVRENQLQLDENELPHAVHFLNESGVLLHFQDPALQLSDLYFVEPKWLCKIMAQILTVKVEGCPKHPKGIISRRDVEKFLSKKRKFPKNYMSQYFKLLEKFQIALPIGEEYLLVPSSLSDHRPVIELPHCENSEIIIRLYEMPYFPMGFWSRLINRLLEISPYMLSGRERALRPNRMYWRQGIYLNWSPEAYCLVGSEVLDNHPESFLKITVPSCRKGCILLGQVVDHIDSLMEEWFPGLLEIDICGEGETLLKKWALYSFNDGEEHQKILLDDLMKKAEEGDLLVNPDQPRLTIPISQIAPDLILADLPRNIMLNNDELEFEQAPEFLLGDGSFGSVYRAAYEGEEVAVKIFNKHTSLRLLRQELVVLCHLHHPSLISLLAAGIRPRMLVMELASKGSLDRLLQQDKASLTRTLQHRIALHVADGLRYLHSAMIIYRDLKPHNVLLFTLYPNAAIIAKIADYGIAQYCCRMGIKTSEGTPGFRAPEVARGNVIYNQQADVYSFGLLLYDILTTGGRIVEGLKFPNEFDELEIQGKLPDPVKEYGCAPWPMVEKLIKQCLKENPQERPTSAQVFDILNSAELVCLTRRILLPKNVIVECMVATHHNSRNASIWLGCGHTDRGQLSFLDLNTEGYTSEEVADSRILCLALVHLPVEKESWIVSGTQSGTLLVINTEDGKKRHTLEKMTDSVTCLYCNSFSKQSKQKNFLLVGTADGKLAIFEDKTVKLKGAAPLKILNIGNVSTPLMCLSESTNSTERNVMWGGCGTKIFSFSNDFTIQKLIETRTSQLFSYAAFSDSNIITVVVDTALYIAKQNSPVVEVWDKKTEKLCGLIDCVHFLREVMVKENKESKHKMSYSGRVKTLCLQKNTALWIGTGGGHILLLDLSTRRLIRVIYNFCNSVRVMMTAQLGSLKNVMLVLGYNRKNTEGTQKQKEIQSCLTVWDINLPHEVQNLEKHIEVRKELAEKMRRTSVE

With `CN1CCC(C(=O)Nc2ccc(CCc3n[nH]c4ccnc(NC5CCCCC5)c34)cc2)CC1` [Example 271, 1-Methyl-piperidine-4-carboxylic acid {4-[2-(4-cyclohexylamino-1H-pyrazolo[4,3-c]pyridin-3-yl)-ethyl]-phenyl}-amide], the IC50 was 0.1 to 1 µM.
As to `CC1CN(C(=O)c2ccc(CCc3n[nH]c4ccnc(NC5CCCCC5)c34)cc2)CCN1C` (centres unmarked) [Example 247, {4-[2-(4-Cyclohexylamino-1H-pyrazolo[4,3-c]pyridin-3-yl)-ethyl]-phenyl}-(3,4-dimethyl-piperazin-1-yl)-methanone], the IC50 is under 0.1 µM.
With `Oc1nccc2[nH]nc(-c3ccoc3)c12` [Example 167, 3-Furan-3-yl-1H-pyrazolo[4,3-c]pyridin-4-ol], the IC50 fell in the range of 0.1 to 1 µM.
In the case of `Cc1n[nH]c2ccnc(O[C@@H]3CCOC3)c12` [Example 297, 3-Methyl-4-[(R)-(tetrahydro-furan-3-yl)oxy]-1H-pyrazolo[4,3-c]pyridine] it was 0.1 to 1 µM; in that of `CN(Cc1ccccc1)C(=O)CCc1n[nH]c2ccnc(NC3CCCCC3)c12` [Example 183, N-Benzyl-3-(4-cyclohexylamino-1H-pyrazolo[4,3-c]pyridin-3-yl)-N-methyl-propionamide], 0.1 to 1 µM.
The figure for `Cc1n[nH]c2ccnc(NC3CCN(C)CC3)c12` [Example 13, (1-Methyl-piperidin-4-yl)-(3-methyl-1H-pyrazolo[4,3-c]pyridin-4-yl)-amine] is 0.1 to 1 µM.
The figure for `Cc1n[nH]c2ccnc(O[C@@H]3CCC[C@@H]3C)c12` (racemic) [Example 293, Cis-3-Methyl-4-(2-methyl-cyclopentyl-oxy)-1H-pyrazolo [4,3-c]pyridine] is 0.1 to 1 µM; for `C[C@@H]1CCN(C(=O)CCc2n[nH]c3ccnc(NC4CCCCC4)c23)C1` [Example 246, 3-(4-Cyclohexylamino-1H-pyrazolo[4,3-c]pyridin-3-yl)-1-((R)-3-methyl-pyrrolidin-1-yl)-propan-1-one] it is under 0.1 µM.
For the compound `Clc1ccc(-c2n[nH]c3ccnc(NC4CCCCC4)c23)cc1` [Example 145, [3-(4-Chloro-phenyl)-1H-pyrazolo[4,3-c]pyridin-4-yl]-cyclohexyl-amine], the half-maximal inhibitory concentration (IC50) lay within 0.1 to 1 µM.
The figure for `Cc1n[nH]c2ccnc(CC3CCCCC3)c12` [Example 126, 4-Cyclohexylmethyl-3-methyl-1H-pyrazolo[4,3-c]pyridine] is 1 to 10 µM; for `Cc1n[nH]c2ccnc(Nc3cccc(C(F)(F)F)c3)c12` [Example 66, (3-Methyl-1H-pyrazolo[4,3-c]pyridin-4-yl)-(3-trifluoromethyl-phenyl)-amine] it is 0.1 to 1 µM; for `Fc1cccc(Nc2nccc3[nH]ncc23)c1` [Example 132, (3-Fluoro-phenyl)-(1H-pyrazolo[4,3-c]pyridin-4-yl)-amine] it is 0.1 to 1 µM.
In the case of `Cc1n[nH]c2ccnc(NCCc3ccccc3)c12` [Example 335] it was 0.1 to 1 µM; in that of `O=C(CCc1n[nH]c2ccnc(NC3CCCCC3)c12)N1CCCCC1c1ccccc1` (centres unmarked) [Example 201, 3-(4-Cyclohexylamino-1H-pyrazolo[4,3-c]pyridin-3-yl)-1-(2-phenyl-piperidin-1-yl)-propan-1-one], 0.1 to 1 µM; in that of `Cc1n[nH]c2ccnc(Nc3ccc(C(=O)N4CCCC4)cc3)c12` [Example 113, [4-(3-Methyl-1H-pyrazolo[4,3-c]pyridin-4-ylamino)-phenyl]-pyrrolidin-1-yl-methanone], 0.1 to 1 µM.
Regarding `COC(=O)c1ccc(CCc2n[nH]c3ccnc(NC4CCCCC4)c23)cc1` [Example 232, 4-[2-(4-Cyclohexylamino-1H-pyrazolo[4,3-c]pyridin-3-yl)-ethyl]-benzoic acid methyl ester], the half-maximal inhibitory concentration (IC50) was 0.1 to 1 µM.
As to `CC[C@@H](C)Oc1nccc2[nH]nc(C)c12` [Example 122, 4-((R)-sec-Butoxy)-3-methyl-1H-pyrazolo[4,3-c] pyridine], the IC50 was under 0.1 µM.
As for `O=C(CCc1n[nH]c2ccnc(NC3CCCCC3)c12)N1CCOCC1` [Example 175, 3-(4-Cyclohexylamino-1H-pyrazolo[4,3-c]pyridin-3-yl)-1-morpholin-4-yl-propan-1-one], the half-inhibitory concentration (IC50) is 0.1 to 1 µM.
For the compound `Cn1ncnc1C1CCCN(C(=O)CCc2n[nH]c3ccnc(NC4CCCCC4)c23)C1` (centres unmarked) [Example 239, 3-(4-Cyclohexylamino-1H-pyrazolo[4,3-c]pyridin-3-yl)-1-[3-(2-methyl-2H-1,2,4-triazol-3-yl)-piperidin-1-yl]-propan-1-one], the IC50 lay in the range of 0.1 to 1 µM.
For the compound `Cc1n[nH]c2ccnc(-c3ccc(C#N)cc3)c12` [Example 54, 4-(3-Methyl-1H-pyrazolo[4,3-c]pyridin-4-yl)-benzonitrile], the half-inhibitory concentration (IC50) lay within 1 to 10 µM.
The figure for `O=C(CCc1n[nH]c2ccnc(NC3CCCCC3)c12)N1CCC(c2cccnc2)C1` (centres unmarked) [Example 207, 3-(4-Cyclohexylamino-1H-pyrazolo[4,3-c]pyridin-3-yl)-1-(3-pyridin-3-yl-pyrrolidin-1-yl)-propan-1-one] is under 0.1 µM; for `Cc1n[nH]c2ccnc(Nc3cccc(CO)c3)c12` [Example 321, [3-(3-Methyl-1H-pyrazolo[4,3-c]pyridin-4-ylamino)-phenyl]-methanol] it is 0.1 to 1 µM.
As for `CCOc1cccc(Nc2nccc3[nH]nc(C)c23)c1` [Example 71, (3-Ethoxy-phenyl)-(3-methyl-1H-pyrazolo[4,3-c]pyridin-4-yl)-amine], the IC50 was 1 to 10 µM.
The figure for `CCC(CC)Nc1nccc2[nH]nc(C)c12` [Example 41, (1-Ethyl-propyl)-(3-methyl-1H-pyrazolo[4,3-c]pyridin-4-yl)-amine] is 0.1 to 1 µM; for `Cc1n[nH]c2ccnc(N[C@@H](C)c3ccccc3)c12` [Example 29, (3-Methyl-1H-pyrazolo[4,3-c]pyridin-4-yl)-((S)-1-phenyl-ethyl)-amine] it is 1 to 10 µM; for `Cc1n[nH]c2ccnc(O[C@@H](C)Cc3ccccc3)c12` [Example 300, 3-Methyl-4-((S)-1-methyl-2-phenyl-ethoxy)-1H-pyrazolo[4,3-c]pyridine] it is 0.1 to 1 µM.
In the case of `Cc1ccc(Nc2nccc3[nH]nc(C)c23)cn1` [Example 344, (3-Methyl-1H-pyrazolo[4,3-c]pyridin-4-yl)-(6-methyl-pyridin-3-yl)-amine] it was 1 to 10 µM; in that of `Brc1n[nH]c2ccnc(NC3CCCCC3)c12` [Example 134, (3-Bromo-1H-pyrazolo[4,3-c]pyridin-4-yl)-cyclohexyl-amine], under 0.1 µM.
The figure for `O=C(Nc1ccc(CCc2n[nH]c3ccnc(NC4CCCCC4)c23)cc1)c1ccc2nccnc2c1` [Example 270, Quinoxaline-6-carboxylic acid {4-[2-(4-cyclohexylamino-1H-pyrazolo[4,3-c]pyridin-3-yl)-ethyl]-phenyl}-amide] is under 0.1 µM; for `Cc1n[nH]c2ccnc(-c3cccc(F)c3)c12` [Example 51, 4-(3-Fluoro-phenyl)-3-methyl-1H-pyrazolo[4,3-c]pyridine] it is 1 to 10 µM.
As for `Cn1nccc1NC(=O)c1ccc(CCc2n[nH]c3ccnc(NC4CCCCC4)c23)cc1` [Example 252, 4-[2-(4-Cyclohexylamino-1H-pyrazolo[4,3-c]pyridin-3-yl)-ethyl]-N-(2-methyl-2H-pyrazol-3-yl)-benzamide], the 50% inhibitory concentration (IC50) lay within 0.1 to 1 µM.
The figure for `Cc1n[nH]c2ccnc(Nc3ccccc3Cl)c12` [Example 309, (2-Chloro-phenyl)-(3-methyl-1H-pyrazolo[4,3-c]pyridin-4-yl)-amine] is 0.1 to 1 µM.
